Here are results for five substances from PMC10312377, “A conserved epitope in VAR2CSA is targeted by a cross-reactive antibody originating from Plasmodium vivax Duffy binding protein” (Frontiers in Cellular and Infection Microbiology, 2023).

Test [1] deals with 3D10 MAb (raised against PvDBP region II). Put plainly: Indirect ELISA, titration of 3D10 against coated peptides. The class given is binding, mouse. To be noted: for 3D10 recognition of peptide by ELISA: peptide coated at 5 µg/ml, titration of 3D10, OD relative to isotype control IgG1. As for the experimental part: (§1) Immunoglobulin G (IgG) reactivity was measured using the enzyme-linked immunosorbent assay (ELISA). Briefly, 96-well Maxisorb plates (catalogue no. 439454; Thermo Fisher Scientific) were coated with synthetic peptides and recombinant full-length VAR2CSA diluted in 1 x PBS and incubated overnight at 4°C. Coated plates were blocked with 4% bovine serum albumin (BSA, catalogue no. A7906; Sigma-Aldrich) for 1 h at 37°C, then washed once with 1 x PBST (0.1% Tween 20). Plates were incubated with primary antibody for 1 h at room temperature (RT) and washed four times with 1 x PBST. The washed plates were incubated at RT for 1 h with 100 µl of HRP-conjugated secondary antibody (goat anti-human HRP, catalogue no. ab98624, Abcam; goat anti-mouse HRP, catalogue no. 170-6516, Bio-Rad, Mississauga, Canada; goat anti-rat HRP catalogue no. 62-9520). After four washes, 100 µl of 3,3′,5,5′-Tetramethylbenzidine (TMB, catalogue no. T0440; Sigma-Aldrich) were added and the reaction was stopped after 30 mins with an equal volume of H2SO4 (0.5 N). Human sera were screened once, in duplicate. The optical density (OD) values were converted to arbitrary units relative to the positive control sera included on each plate using the formula: AU = ODtest -ODbackground/ODpositive control pool – ODbackground)*100. The positive control pool refers to the OD of a pool of Colombian or Ugandan samples that were seroreactive against the peptides or VAR2CSA, respectively. The background is the OD with secondary antibody alone. The cut-off for seropositivity was based on the mean AU of sera from 12 individual Colombians not exposed to malaria plus 2 standard deviations; data to generate the cut-off are from two independent experiments. Only sera that were above the cut-off for VAR2CSA seropositivity were screened against CRP1 and SD1CLIPS.

In test [2] the test system is 3D10 MAb binding to SD1CLIPS. In words: Competition ELISA of 3D10 with SD1CLIPS as capture antigen. On the set-up: species or system mouse. To be noted: 3D10 (1.72 µg/ml) pre-incubated 1 h RT with 10 µg/ml competing peptide; SD1CLIPS coated 1 µg/ml; compared with negative control peptide P10; 3 independent experiments.
Test [3] relates to 3D10 MAb binding to recombinant VAR2CSA (FCR3). In words: Competition ELISA of 3D10 with VAR2CSA as capture antigen. On the set-up: species or system mouse. Conditions: 3D10 (8.6 µg/ml) pre-incubated 1 h RT with 10 µg/ml competing peptide; VAR2CSA coated 1 µg/ml; 3 independent experiments. As for the experimental part:
as §1, with “The positive control pool refers to the OD of a pool of Colombian or Ugandan samples that were seroreactive against the peptides or VAR2CSA, respectively. The background is the OD with secondary antibody alone. The cut-off for seropositivity was based on the mean AU of sera from 12 individual Colombians not exposed to malaria plus 2 standard deviations; data to generate the cut-off are from two independent experiments. Only sera that were above the cut-off for VAR2CSA seropositivity were screened against CRP1 and SD1CLIPS.” left out

Test [4] is described as follows: Isothermal titration calorimetry (ITC) of peptides with CSA. The class given is binding, Bovine. To be noted: 25°C; for Binding to CSA by ITC: PBS with 0.5% acetonitrile pH 7.4, 50 µM peptide in cell, 1 mM CSA in syringe, 25 injections of 1.5 µl. As for the experimental part: Bovine tracheal CSA was purchased from Sigma-Aldrich (Cat no C9819). The energetics of the binding of peptides to CSA was performed at 25°C, on a MicroCal PEAQ-ITC calorimeter (Malvern Panalytical, Malvern, USA). For all experiments, samples were prepared in PBS containing 0.5% acetonitrile, pH 7.4. The reference cell was loaded with autoclaved milli-Q ultra-pure water; the sample cell was loaded with peptide solution (50 µM) and the syringe was filled with 1 mM CSA solution (based on a molecular weight of 50 kDa). In each titration, 25 injections of 1.5 μl of the CSA solution were made into the sample cell. A spacing of 150 s between each injection was applied to enable the system to reach equilibrium. The ITC data were analyzed with MicroCal-PEAQ-ITC Analysis Software v1.41. Binding parameters such as the ΔH (enthalpy change) and the ΔS (entropy change) were determined by fitting the experimental binding isotherms with the ‘one set of sites’ fitting model and GraphPad Prism software (version 9) was used to plot the results.

The test system of test [5] is rat-CRP1 antibodies (sera of CRP1-BSA immunized rats). Put plainly: Indirect ELISA, reactivity of rat anti-CRP1 sera against peptides. Format: binding. To be noted: peptide coated 5 µg/ml, rat sera 1/100 dilution. As for the experimental part:
as §1, with “The positive control pool refers to the OD of a pool of Colombian or Ugandan samples that were seroreactive against the peptides or VAR2CSA, respectively. The background is the OD with secondary antibody alone. The cut-off for seropositivity was based on the mean AU of sera from 12 individual Colombians not exposed to malaria plus 2 standard deviations; data to generate the cut-off are from two independent experiments. Only sera that were above the cut-off for VAR2CSA seropositivity were screened against CRP1 and SD1CLIPS.” left out

Test [6] relates to P. falciparum CS2 infected erythrocytes (VAR2CSA-expressing) binding to CSA. Put plainly: Inhibition of binding assay (IBA), static binding of IEs to CSA. Conditions: CS2 IEs preincubated with soluble CSA 250 µg/ml, positive control; relative to AE-BSA control. The class given is cell-based. As for the experimental part:
CRP1 was conjugated to BSA (as carrier protein) at the N-terminus through an azide-alkyne cycloaddition and outsourced commercially to ProSci (California, USA) for rat immunizations. As controls, an unrelated peptide conjugate (P5-BSA), the PAMVAC vaccine candidate (ID1-ID2a region from VAR2CSA) and the carrier protein conjugated to the linker (azido-ethanol (AE-BSA)) were included. Briefly, two female Sprague Dawley rats (~11 weeks old) were immunized intraperitoneally on day 0 with 75 µg of each antigen formulated in PBS and Complete Freund’s Adjuvant (CFA) followed by 3 booster immunizations with 50 µg of antigen in Incomplete Freund’s Adjuvant at 2-week intervals. Sera were collected 14 days after the final boost.
P. falciparum CS2 parasites were cultured in vitro as described ([Trager and Jensen, 1976]). Parasites were selected for adhering to CSA every 3-4 weeks to enrich for parasites expressing VAR2CSA. […]
The ability of anti-CRP1 IgG to block parasite binding to CSA in vitro was assessed by a static binding assay ([Gnidehou et al., 2014]). […] After washing, spots were fixed with glutaraldehyde and stained with Giemsa before imaging using a EVOS FL Auto microscope (Invitrogen) and the number of parasites bound per spot was analyzed using ImageJ. Percent inhibition of binding was calculated relative to the counts from the AE-BSA control.

“KAYISEKKQEWDKQKTKYENKYVGKSASDLLKEN [CRP1-K1510A]”: the “3D10 recognition of peptide by ELISA” value in test [1] is “partially reduced binding”.

In the case of “KKYISEKKQEWDAQKTAYENAYVGKSASDLLKEN [CRP1-AAA]”, the “3D10 recognition of peptide by ELISA” value in test [1] is reported as “completely abolished antibody recognition”.

Take “KKYISEKKQEWDKQKTKYENKYVGKSASDLLKEN [CRP1]”: the “3D10 recognition of peptide by ELISA compared with SD1CLIPS” value in test [1] (both peptides coated at 1 µg/ml, titration of 3D10) is recorded as “substantially weaker”. The “3D10 recognition of peptide by ELISA” value in test [1] is listed as “recognizes”. Besides, the “Competition for 3D10 binding to SD1CLIPS” value in test [2] is “significant loss in SD1CLIPS recognition”. Further, the “Competition for 3D10 binding to VAR2CSA” value in test [3] is given as “same binding inhibition toward VAR2CSA as compared to SD1CLIPS”. Further, the “Binding to CSA by ITC in the presence of 100 mM NaCl” value in test [4] (50 µM peptide, 1 mM CSA, in the presence of 100 mM NaCl) is given as “abrogated”. Moreover, the “Binding to CSA by ITC” value in test [4] is “heat release after each CSA injection, consistent with CSA binding to CRP1”. In addition, the “Recognition of peptide by rat-CRP1 antibodies (ELISA)” value in test [5] is “recognized”.

Regarding “KQIWLKSKSKNKTEEKGKDYYQKEKYKANLEVSD [Scrambled CRP1 peptide, scrambled version of CRP1, reference compound]”, in test [1], the “3D10 recognition of peptide by ELISA” value is “poorly recognized”. Also, the “Binding to CSA by ITC” value in test [4] is given as “also bound to CSA”. Further, the “Recognition of peptide by rat-CRP1 antibodies (ELISA)” value in test [5] is on record as “did not recognize”.

In the case of chondroitin sulfate A [Soluble CSA], the “Percent inhibition of IE binding to CSA” value in test [6] is “over 90%”.
